Data taken from PubChem BioAssay AID248 (DTP/NCI, 2004).
Values joined by “and” are separate entries in the source; they are usually repeats but may differ in a detail not shown here. Equal entries are not always repeated. Inconclusive results and toxic doses are left out. No stated cut-off is given here; in the data, active means T/C of 150% or more; inactive means T/C below 125%.

Tested on: L1210 leukemia ip in BDF1 mice, survival T/C
Assay: NCI In Vivo Anticancer Drug Screen. Data for tumor model L1210 Leukemia (intraperitoneal) in B6D2F1 (BDF1) mice
Settings: higher = longer survival
Summary of the method: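 In this screen, tumor-bearing mice given compound are compared to those given vehicle, and their survival values are reported as a treated-to-control quotient.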

Measured: T/C

CC[n+]1c(-c2ccccc2)c2cc(N)ccc2c2ccc(N)cc21
inactive: endpoint: mean survival time, dose: 0.63 mg/kg/injection, schedule: Q01DX Z (ip), vehicle: saline 113 % of control | endpoint: mean survival time, dose: 1.25 mg/kg/injection, schedule: Q01DX Z (ip), vehicle: saline 122 % of control | endpoint: mean survival time, dose: 2.25 mg/kg/injection, schedule: Q01DX001 (ip), vehicle: saline 110 % of control and 113 % of control | endpoint: mean survival time, dose: 2.25 mg/kg/injection, schedule: Q07DX003 (ip), vehicle: saline 113 % of control | endpoint: mean survival time, dose: 2.5 mg/kg/injection, schedule: Q01DX005 (ip), vehicle: saline 109 % of control | endpoint: mean survival time, dose: 2.5 mg/kg/injection, schedule: Q01DX009 (ip), vehicle: saline 107 % of control | endpoint: mean survival time, dose: 2.5 mg/kg/injection, schedule: Q## X040 (ip), vehicle: saline 107 % of control | endpoint: mean survival time, dose: 2.5 mg/kg/injection, schedule: Q#A X Z (ip), vehicle: saline 108 % of control | endpoint: mean survival time, dose: 4.4 mg/kg/injection, schedule: Q02DX010 (ip), vehicle: saline 110 % of control | endpoint: mean survival time, dose: 4.5 mg/kg/injection, schedule: Q01DX001 (ip), vehicle: saline 104 % of control and 113 % of control | endpoint: mean survival time, dose: 4.5 mg/kg/injection, schedule: Q07DX003 (ip), vehicle: saline 109 % of control | endpoint: mean survival time, dose: 5.0 mg/kg/injection, schedule: Q01DX005 (ip), vehicle: saline 116 % of control | endpoint: mean survival time, dose: 5.0 mg/kg/injection, schedule: Q01DX006 (iv), vehicle: saline 104 % of control | endpoint: mean survival time, dose: 5.0 mg/kg/injection, schedule: Q01DX009 (ip), vehicle: saline 108 % of control | endpoint: mean survival time, dose: 5.0 mg/kg/injection, schedule: Q01DX Z (im), vehicle: saline 106 % of control | endpoint: mean survival time, dose: 5.0 mg/kg/injection, schedule: Q01DX Z (sc), vehicle: saline 110 % of control | endpoint: mean survival time, dose: 5.0 mg/kg/injection, schedule: Q## X040 (ip), vehicle: saline 111 % of control | endpoint: mean survival time, dose: 5.3 mg/kg/injection, schedule: Q02DX010 (ip), vehicle: saline 116 % of control | endpoint: mean survival time, dose: 6.6 mg/kg/injection, schedule: Q02DX010 (ip), vehicle: saline 116 % of control | endpoint: mean survival time, dose: 9.0 mg/kg/injection, schedule: Q01DX001 (ip), vehicle: saline 113 % of control and 116 % of control | endpoint: mean survival time, dose: 9.0 mg/kg/injection, schedule: Q07DX003 (ip), vehicle: saline 110 % of control | endpoint: mean survival time, dose: 9.9 mg/kg/injection, schedule: Q02DX010 (ip), vehicle: saline 115 % of control | endpoint: mean survival time, dose: 10.0 mg/kg/injection, schedule: Q01DX005 (ip), vehicle: saline 120 % of control | endpoint: mean survival time, dose: 10.0 mg/kg/injection, schedule: Q01DX006 (iv), vehicle: saline 123 % of control | endpoint: mean survival time, dose: 10.0 mg/kg/injection, schedule: Q01DX009 (ip), vehicle: saline 116 % of control | endpoint: mean survival time, dose: 10.0 mg/kg/injection, schedule: Q01DX Z (im), vehicle: saline 119 % of control | endpoint: mean survival time, dose: 10.0 mg/kg/injection, schedule: Q01DX Z (sc), vehicle: saline 116 % of control | endpoint: mean survival time, dose: 10.0 mg/kg/injection, schedule: Q## X040 (ip), vehicle: saline 112 % of control | endpoint: mean survival time, dose: 10.0 mg/kg/injection, schedule: Q#A X Z (ip), vehicle: saline 112 % of control | endpoint: mean survival time, dose: 12.5 mg/kg/injection, schedule: Q04DX003 (ip), vehicle: water 104 % of control | endpoint: mean survival time, dose: 14.85 mg/kg/injection, schedule: Q02DX010 (ip), vehicle: saline 113 % of control | endpoint: mean survival time, dose: 15.0 mg/kg/injection, schedule: Q03DX006 (ip), vehicle: saline 118 % of control | endpoint: mean survival time, dose: 18.0 mg/kg/injection, schedule: Q01DX001 (ip), vehicle: saline 116 % of control and 121 % of control | endpoint: mean survival time, dose: 18.0 mg/kg/injection, schedule: Q07DX003 (ip), vehicle: saline 122 % of control | endpoint: mean survival time, dose: 20.0 mg/kg/injection, schedule: Q01DX001 (ip), vehicle: saline 109 % of control | endpoint: mean survival time, dose: 20.0 mg/kg/injection, schedule: Q01DX001 (sc), vehicle: saline 103 % of control | endpoint: mean survival time, dose: 20.0 mg/kg/injection, schedule: Q01DX003 (ip), vehicle: saline 118 % of control | endpoint: mean survival time, dose: 20.0 mg/kg/injection, schedule: Q01DX005 (ip), vehicle: saline 110 % of control | endpoint: mean survival time, dose: 20.0 mg/kg/injection, schedule: Q01DX009 (ip), vehicle: saline 117 % of control | endpoint: mean survival time, dose: 20.0 mg/kg/injection, schedule: Q01DX Z (im), vehicle: saline 116 % of control | endpoint: mean survival time, dose: 20.0 mg/kg/injection, schedule: Q01DX Z (ip), vehicle: saline 95 % of control | endpoint: mean survival time, dose: 20.0 mg/kg/injection, schedule: Q01DX Z (oral), vehicle: saline 110 % of control | endpoint: mean survival time, dose: 20.0 mg/kg/injection, schedule: Q01DX Z (sc), vehicle: saline 122 % of control | endpoint: mean survival time, dose: 20.0 mg/kg/injection, schedule: Q## X008 (ip), vehicle: saline 94 % of control | endpoint: mean survival time, dose: 20.0 mg/kg/injection, schedule: Q## X024 (ip), vehicle: saline 107 % of control | endpoint: mean survival time, dose: 22.27 mg/kg/injection, schedule: Q02DX010 (ip), vehicle: saline 117 % of control | endpoint: mean survival time, dose: 25.0 mg/kg/injection, schedule: Q04DX003 (ip), vehicle: water 104 % of control | endpoint: mean survival time, dose: 40.0 mg/kg/injection, schedule: Q01DX001 (ip), vehicle: saline 118 % of control | endpoint: mean survival time, dose: 40.0 mg/kg/injection, schedule: Q01DX001 (sc), vehicle: saline 102 % of control | endpoint: mean survival time, dose: 40.0 mg/kg/injection, schedule: Q01DX003 (ip), vehicle: saline 110 % of control | endpoint: mean survival time, dose: 40.0 mg/kg/injection, schedule: Q01DX005 (ip), vehicle: saline 96 % of control | endpoint: mean survival time, dose: 40.0 mg/kg/injection, schedule: Q01DX009 (ip), vehicle: saline 90 % of control | endpoint: mean survival time, dose: 40.0 mg/kg/injection, schedule: Q01DX Z (oral), vehicle: saline 113 % of control | endpoint: mean survival time, dose: 40.0 mg/kg/injection, schedule: Q## X008 (ip), vehicle: saline 95 % of control | endpoint: mean survival time, dose: 40.0 mg/kg/injection, schedule: Q## X024 (ip), vehicle: saline 111 % of control | endpoint: mean survival time, dose: 40.0 mg/kg/injection, schedule: Q## X040 (ip), vehicle: saline 93 % of control | endpoint: mean survival time, dose: 60.0 mg/kg/injection, schedule: Q03DX006 (ip), vehicle: saline 93 % of control | endpoint: mean survival time, dose: 70.0 mg/kg/injection, schedule: Q01DX001 (ip), vehicle: saline 118 % of control and 119 % of control | endpoint: mean survival time, dose: 70.0 mg/kg/injection, schedule: Q07DX003 (ip), vehicle: saline 124 % of control | endpoint: mean survival time, dose: 80.0 mg/kg/injection, schedule: Q01DX001 (ip), vehicle: saline 103 % of control | endpoint: mean survival time, dose: 80.0 mg/kg/injection, schedule: Q01DX001 (sc), vehicle: saline 108 % of control | endpoint: mean survival time, dose: 80.0 mg/kg/injection, schedule: Q01DX003 (ip), vehicle: saline 98 % of control | endpoint: mean survival time, dose: 80.0 mg/kg/injection, schedule: Q01DX Z (oral), vehicle: saline 108 % of control | endpoint: mean survival time, dose: 80.0 mg/kg/injection, schedule: Q## X008 (ip), vehicle: saline 103 % of control | endpoint: mean survival time, dose: 140.0 mg/kg/injection, schedule: Q01DX001 (ip), vehicle: saline 104 % of control and 124 % of control | endpoint: mean survival time, dose: 160.0 mg/kg/injection, schedule: Q01DX001 (ip), vehicle: saline 94 % of control | endpoint: mean survival time, dose: 160.0 mg/kg/injection, schedule: Q01DX Z (oral), vehicle: saline 113 % of control | endpoint: mean survival time, dose: 160.0 mg/kg/injection, schedule: Q## X024 (ip), vehicle: saline 94 % of control | endpoint: mean survival time, dose: 200.0 mg/kg/injection, schedule: Q01DX001 (oral), vehicle: saline 103 % of control | endpoint: mean survival time, dose: 215.0 mg/kg/injection, schedule: Q04DX003 (ip), vehicle: water 109 % of control | endpoint: mean survival time, dose: 400.0 mg/kg/injection, schedule: Q01DX001 (oral), vehicle: saline 103 % of control | endpoint: mean survival time, dose: 430.0 mg/kg/injection, schedule: Q04DX003 (ip), vehicle: water 93 % of control | endpoint: mean survival time, dose: 800.0 mg/kg/injection, schedule: Q01DX001 (oral), vehicle: saline 101 % of control | endpoint: mean survival time, dose: 1600.0 mg/kg/injection, schedule: Q01DX001 (oral), vehicle: saline 102 % of control | endpoint: median survival time, dose: 3.6 mg/kg/injection, schedule: Q01DX005 (ip), vehicle: water 105 % of control | endpoint: median survival time, dose: 5.0 mg/kg/injection, schedule: Q01DX009 (ip), vehicle: water 109 % of control and 110 % of control | endpoint: median survival time, dose: 6.0 mg/kg/injection, schedule: Q01DX005 (ip), vehicle: water 100 % of control | endpoint: median survival time, dose: 10.0 mg/kg/injection, schedule: Q01DX005 (ip), vehicle: water 111 % of control | endpoint: median survival time, dose: 10.0 mg/kg/injection, schedule: Q01DX009 (ip), vehicle: water 116 % of control and 120 % of control | endpoint: median survival time, dose: 17.0 mg/kg/injection, schedule: Q01DX005 (ip), vehicle: water 111 % of control | endpoint: median survival time, dose: 17.0 mg/kg/injection, schedule: Q04DX003 (ip), vehicle: water 100 % of control | endpoint: median survival time, dose: 20.0 mg/kg/injection, schedule: Q01DX009 (ip), vehicle: water 90 % of control | endpoint: median survival time, dose: 29.0 mg/kg/injection, schedule: Q01DX005 (ip), vehicle: water 116 % of control | endpoint: median survival time, dose: 29.0 mg/kg/injection, schedule: Q04DX003 (ip), vehicle: water 100 % of control | endpoint: median survival time, dose: 40.0 mg/kg/injection, schedule: Q01DX009 (ip), vehicle: water 70 % of control | endpoint: median survival time, dose: 48.0 mg/kg/injection, schedule: Q04DX003 (ip), vehicle: water 100 % of control | endpoint: median survival time, dose: 49.0 mg/kg/injection, schedule: Q01DX005 (ip), vehicle: water 116 % of control | endpoint: median survival time, dose: 80.0 mg/kg/injection, schedule: Q04DX003 (ip), vehicle: water 105 % of control | endpoint: median survival time, dose: 134.0 mg/kg/injection, schedule: Q04DX003 (ip), vehicle: water 111 % of control
